Tested on: 186277-243-T-J2-PDC complex spheroid viability
Assay: Anticancer human tumor 186277-243-T-J2-PDC patient-derived colon adenocarcinoma cell line growth inhibition [POLQ]
Conditions: for IC50: curve of first compound; for viability, T/C: stronger effect = lower value; active = viability on the fitted dose curve at most 10% of control; inactive = the rest
In short: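 Growth inhibition in 3D: complex spheroids (tumor PDC, HUVEC, MSC) treated with POLQ inhibitor combinations; where Cmax unknown, highest tested concentration 10 microM, except SN-38 at 1 microM.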

[1] = second compound 0.0316 µM, first compound 0.0316 µM
[2] = second compound 0.0316 µM, first compound 0.1 µM
[3] = second compound 0.0316 µM, first compound 0.316 µM
[4] = second compound 0.0316 µM, first compound 1 µM
[5] = second compound 0.0316 µM, first compound 3.16 µM
[6] = second compound 0.0316 µM, first compound 10 µM
[7] = second compound 0.1 µM, first compound 0.0316 µM
[8] = second compound 0.1 µM, first compound 0.1 µM
[9] = second compound 0.1 µM, first compound 0.316 µM
[10] = second compound 0.1 µM, first compound 1 µM
[11] = second compound 0.1 µM, first compound 3.16 µM
[12] = second compound 0.1 µM, first compound 10 µM
[13] = second compound 0.316 µM, first compound 0.0316 µM
[14] = second compound 0.316 µM, first compound 0.1 µM
[15] = second compound 0.316 µM, first compound 0.316 µM
[16] = second compound 0.316 µM, first compound 1 µM
[17] = second compound 0.316 µM, first compound 3.16 µM
[18] = second compound 0.316 µM, first compound 10 µM
[19] = second compound 1 µM, first compound 0.0316 µM
[20] = second compound 1 µM, first compound 0.1 µM
[21] = second compound 1 µM, first compound 0.316 µM
[22] = second compound 1 µM, first compound 1 µM
[23] = second compound 1 µM, first compound 3.16 µM
[24] = second compound 1 µM, first compound 10 µM
[25] = second compound 3.16 µM, first compound 0.0316 µM
[26] = second compound 3.16 µM, first compound 0.1 µM
[27] = second compound 3.16 µM, first compound 0.316 µM
[28] = second compound 3.16 µM, first compound 1 µM
[29] = second compound 3.16 µM, first compound 3.16 µM
[30] = second compound 3.16 µM, first compound 10 µM
[31] = second compound 10 µM, first compound 0.0316 µM
[32] = second compound 10 µM, first compound 0.1 µM
[33] = second compound 10 µM, first compound 0.316 µM
[34] = second compound 10 µM, first compound 1 µM
[35] = second compound 10 µM, first compound 3.16 µM
[36] = second compound 10 µM, first compound 10 µM
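Note: spheroids exposed to compounds for seven days.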
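Throughout, for viability, T/C: 100% = DMSO vehicle control viability.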

C=CC(=O)N1CCN(c2nc(=O)n(-c3c(C)ccnc3C(C)C)c3nc(-c4c(O)cccc4F)c(F)cc23)C(C)C1 (stereo unspecified) + Cc1cccc(N(C)C(=O)C2C(O)CCN2c2nc(C)cc(C(F)(F)F)c2C#N)c1
> 10 µM: IC50 (second compound 0.0316 µM) | IC50 (second compound 0.1 µM) | IC50 (second compound 0.316 µM) | IC50 (second compound 1 µM) | IC50 (second compound 3.16 µM) | IC50 (second compound 10 µM)
inactive: viability, T/C [1] 92.8% | viability, T/C [2] 101% | viability, T/C [3] 82.2% | viability, T/C [4] 90.9% | viability, T/C [5] 99.5% | viability, T/C [6] 103% | viability, T/C [7] 106% | viability, T/C [8] 98.6% | viability, T/C [9] 103% | viability, T/C [10] 84.7% | viability, T/C [11] 107% | viability, T/C [12] 104% | viability, T/C [13] 90.4% | viability, T/C [14] 91.5% | viability, T/C [15] 102% | viability, T/C [16] 99.5% | viability, T/C [17] 112% | viability, T/C [18] 102% | viability, T/C [19] 99.8% | viability, T/C [20] 108% | viability, T/C [21] 98.6% | viability, T/C [22] 96.2% | viability, T/C [23] 108% | viability, T/C [24] 101% | viability, T/C [25] 106% | viability, T/C [26] 99% | viability, T/C [27] 84% | viability, T/C [28] 106% | viability, T/C [29] 111% | viability, T/C [30] 103% | viability, T/C [31] 97.9% | viability, T/C [32] 106% | viability, T/C [33] 108% | viability, T/C [34] 102% | viability, T/C [35] 97.3% | viability, T/C [36] 95.9%

COc1cc2cc(C(=O)CCC(=O)O)sc2cc1OC + Nc1ccc(C#CCN(C(=O)Cc2ncc(C(F)(F)F)cc2C(F)(F)F)c2ccc(F)cc2)nn1
inactive: viability, T/C [1] 83.5% | viability, T/C [2] 87.3% | viability, T/C [3] 92.9% | viability, T/C [4] 88.7% | viability, T/C [5] 93.4% | viability, T/C [6] 85.6% | viability, T/C [7] 96.3% | viability, T/C [8] 98.5% | viability, T/C [9] 91% | viability, T/C [10] 100% | viability, T/C [11] 90.3% | viability, T/C [12] 103% | viability, T/C [13] 97.5% | viability, T/C [14] 87.5% | viability, T/C [15] 87% | viability, T/C [16] 91.9% | viability, T/C [17] 89.9% | viability, T/C [18] 97.8% | viability, T/C [19] 96.1% | viability, T/C [20] 96.5% | viability, T/C [21] 92.2% | viability, T/C [22] 94.3% | viability, T/C [23] 94.8% | viability, T/C [24] 83.2% | viability, T/C [25] 78.8% | viability, T/C [26] 105% | viability, T/C [27] 90% | viability, T/C [28] 90.7% | viability, T/C [29] 98.9% | viability, T/C [30] 93.5% | viability, T/C [31] 106% | viability, T/C [32] 94.8% | viability, T/C [33] 81.5% | viability, T/C [34] 90% | viability, T/C [35] 90.5% | viability, T/C [36] 96.5%
> 10 µM: IC50 (second compound 0.0316 µM) | IC50 (second compound 0.1 µM) | IC50 (second compound 0.316 µM) | IC50 (second compound 1 µM) | IC50 (second compound 3.16 µM) | IC50 (second compound 10 µM)

C#Cc1c(F)ccc2cc(O)cc(-c3ncc4c(N5CC6CCC(C5)N6)nc(OCC56CCCN5CC(F)C6)nc4c3F)c12 (stereo unspecified) + Cc1cccc(N(C)C(=O)C2C(O)CCN2c2nc(C)cc(C(F)(F)F)c2C#N)c1
inactive: viability, T/C [1] 81.1% | viability, T/C [2] 49.3% | viability, T/C [3] 21.4% | viability, T/C [7] 80.7% | viability, T/C [8] 53.5% | viability, T/C [9] 21.9% | viability, T/C [13] 86.9% | viability, T/C [14] 41% | viability, T/C [15] 16.9% | viability, T/C [19] 89.8% | viability, T/C [20] 43% | viability, T/C [21] 19.6% | viability, T/C [22] 11% | viability, T/C [25] 80.6% | viability, T/C [26] 30.4% | viability, T/C [27] 11.1% | viability, T/C [31] 51.6% | viability, T/C [32] 18.2%
0.0975 µM: IC50 (second compound 0.0316 µM)
0.0639 µM: IC50 (second compound 3.16 µM)
active: viability, T/C [4] 8.81% | viability, T/C [5] 6.82% | viability, T/C [6] 4.22% | viability, T/C [10] 9.85% | viability, T/C [11] 6.56% | viability, T/C [12] 4.18% | viability, T/C [16] 8.42% | viability, T/C [17] 6.35% | viability, T/C [18] 5.85% | viability, T/C [23] 6.21% | viability, T/C [24] 4.34% | viability, T/C [28] 6.02% | viability, T/C [29] 6.21% | viability, T/C [30] 5.42% | viability, T/C [33] 11% | viability, T/C [34] 5.4% | viability, T/C [35] 4.3% | viability, T/C [36] 3.05%
0.0842 µM: IC50 (second compound 1 µM)
0.0799 µM: IC50 (second compound 0.316 µM)
0.113 µM: IC50 (second compound 0.1 µM)
0.0328 µM: IC50 (second compound 10 µM)

From PubChem BioAssay AID1963854 (Molecular Pharmacology Branch, DTP, NCI, 2024)
